Experimental data: patent US20110200693A1, “INCREASING THE EFFICIENCY OF UTILIZATION OF INGESTED CREATINE” (priority 2007, published 2011)

Assays:
[1] = Plasma creatine kinetics after a single ingestion of 2 g creatine (one-open compartmental model); format: in vivo, human; conditions: 2 g creatine oral, not influenced by the form ingested
Protocol: The health status questionnaire was filled in again.
Venous blood was collected on heparin as an anticoagulant. The tubes were placed immediately on ice and centrifuged at 3000 g for 6 min at 4° C. […] NaOH 0.1M (90 μL) was added to supernatant (300 μL) to obtain a pH value of about 7.8. Samples were stored at −20° C.
Using a Marquardt algorithm, all kinetics were fitted with the following equation: […]
This equation corresponds to a one-open compartmental model in which ka, kel and tlag are the primary parameters. Knowing their value, new kinetic parameters of plasma creatine were calculated:
Since the bioavailability (F) may not be measured, only the apparent volume of distribution and the apparent clearance can be estimated:
Vd: the apparent volume of distribution (Vd=V/F, L)

[2] = doses from 8 g/d to 21 g/d during 1 to 14 days; cited from earlier work

- apparent volume of distribution relative to body mass [1]: about 75 % of body mass
Structure (SMILES): CN(CC(=O)O)C(=N)N [creatine]
- fraction of ingested creatine excreted in urine [2]: 33 to 77 % of the original dose
